Series [1] has as its system R1 mouse embryonic stem (mES) cell line. Kind of series: Mouse embryonic stem cell (R1) neural differentiation, CTIP2 and doublecortin immunofluorescence. The class given is cell-based. The following applies: 500 nM during neural differentiation for 21 days, vs vehicle. On the procedure:
R1 mouse embryonic stem (mES) cell line was grown on gelatin 0.1%, in Knockout DMEM supplemented with 20% Knockout Serum Replacement, 1000 U ml-1 of LIF, 0.1 mM of non-essential amino acids, 2 mM ultraglutamine, 50 U ml-1 of penicillin and streptomycin and 0.1 mM of 2-mercaptoethanol. Cells were then differentiated at low density in Defined Default Medium (DDM) containing DMEM/F12 + GlutaMAX supplemented with N2 supplement (1×), 5 mM of Hepes Buffer, 0.1 mM of non-essential amino acids, 1 mM of sodium pyruvate, 2.5 mg ml-1 of AlbuMax-I, 30 mM of D-Glucose, 0.1 mM of non-essential amino acids, 0.1 mM of 2-mercaptoethanol, 50 U ml-1 of penicillin and streptomycin for 12 days. […]
Free floating coronal brain slices (30 μm) were processed as previously described. […] The lateral SVZ zone was delineated by using DAPI-counterstained cell nuclei, and analyses were performed in the upper dorsal tier, in which positively-labelled cells and immunoreactivity were quantified not beyond 100 μm of the SVZ. Confocal fluorescence images were acquired by using LAS-X software (Wetzlar, Germany) and SP8 microscope with 2 passes by Kalman filter, a 1024X1024 collection box, and pinhole AU 1. […] Cells were quantified within a 20 × 20 μm counting frame, which randomly sampled within a 122.8 × 68.9 μm counting grid. […]

Series [2] is described as follows: Pharmacokinetics in rats, plasma and brain by LC-MS/MS. Type of series: in vivo, Sprague Dawley rats. The note with it: rat; for concentration at 24 h: brain at 24 h; for AUC(0-t) / Cmax / Tmax: plasma; for bioavailability: oral 50 mg/kg vs i.v. 10 mg/kg, dose-corrected AUCt ratio. The method, then:
Six-week old male Sprague Dawley rats (Janvier Labs, France) were located in the rodent area of Eurofins ADME Bioanalyses (Vergèze, France) and housed under standard conditions (12-h light/dark cycle) in groups with access to food and water ad libitum. Each animal was identified by an ear tag and examined for general health and welfare. Process, treatment and euthanasia were conducted according to the current procedures in use at Eurofins ADME Bioanalyses. Animals were treated with a single intravenous bolus of VCE-003.2 (10 mg/Kg in DMSO) or with oral VCE-003.2 (50 mg/Kg in sesame oil). At the prescribed times, blood (0.5 ml) was collected using a capillary tube and plasma frozen at − 20 °C until analysis. After 24 h, the animals were anesthetized and perfused with 20 mL of saline solution directly into the heart to extract the maximal blood sample from the brain. Plasma samples (100 μl) were mixed with 300 μl of acetonitrile and after protein precipitation, analysis of VCE-003.2 content was performed using LC-MS/MS (3 animals per each time point). For brain samples, the tissues were homogenized with an Ultra-turrax® using UHQ water (1/1, w/w). 100 μl of each homogenate was mixed with 300 μl of acetonitrile and the mixture centrifuged for 5 min at 25,000 g. Brain homogenate supernatants were directly measured by LC-MS/MS. Previous studies have shown that there are not significant differences between mice and rats in the main pharmacokinetic parameters of different cannabinoids, including CBG [18]. As the dose used here was different between i.v. and oral routes of administration, bioavailability was calculated taking into account the dose as follows: [AUCt (oral)/dose (oral)]/[AUCt(i.v.)/dose(i.v.)].

Series [3] concerns quinolinic acid-administration model of HD. Details: method as in PMID 27430371. The following applies: cited from earlier work.
Another series relates to neural progenitor. On the set-up: method as in PMID 27430371. The following applies: cited from earlier work.
Setting [4] is: male, Sprague Dawley, in vivo, iv, single i.v. 10 mg/kg.
[5] abbreviates: male, Sprague Dawley, in vivo, single oral 50 mg/kg in sesame oil.

One may read the AUC(0-t) as exposure summed from dosing to a finite time, without extrapolation to infinity. Low readings indicate less exposure, high ones more exposure. As usually defined, the Cmax is the peak of the concentration-time curve. The Tmax is the time from dosing to the highest level. Broadly, the bioavailability is the share of a dose that reaches the circulation, judged against a reference dose that is usually intravenous.

The structures appear in SMILES notation. Like-named read-outs stand apart in the source and are kept apart here.

As to `CCCCCC1=C(NCC)C(=O)C(CC=C(C)CCC=C(C)C)=C(O)C1=O` [VCE-003.2, 2-(3,7-dimethyl-octa-2,6-dienyl)-6-ethylamino-3-hydroxy-5-pentyl-(1,4) benzoquinone], in series [1], the doublecortin immunoreactivity entry is “increased” and the “number of CTIP2-positive cells” value is on record as “increased the number of CTIP2-positive cells”. For the same molecule, in series [2] (setting [4]), the concentration at 24 h was determined as 93.7 ± 37.7 ng/mL, the AUC(0-t) was found to be 475 µg·h/mL, the Cmax was 83200 ng/mL and the Tmax is 0.08 h. The molecule also gave a concentration at 24 h in series [2] (male, Sprague Dawley, in vivo, single oral 50 mg/kg) of 86.8 ± 34 ng/mL. In addition, in series [2] (setting [5]), the AUC(0-t) came to 327 µg·h/mL, the concentration peaked (Cmax) at 20300 ng/mL and the Tmax turned out to be 8 h. In series [2] (male, Sprague Dawley, in vivo, read-out: Bioavailability), the bioavailability came to 13.8%. The bioavailability in series [2] worked out at 13.77%. In series [3], the “neuroprotection in quinolinic acid model of HD” value is reported as “neuroprotective”. In addition, the neural progenitor survival entry with neural progenitor was “increases neural progenitor survival”.
